According to US20250206730A1 (AUTOTELIC BIO INC., priority 2022, published 2025):

Each molecule was assayed on TGF-β signaling (assay: Assay for evaluating cellular inhibition of TGF-β signaling, 4T1 (SBE-luc2P) luciferase reporter). Conditions: Mus musculus, 4T1, 4T1 (SBE-luc2P) transient pool, 0.2% FBS, 2 h pre-treatment, TGF-β1 2 ng/mL 24 h; read-out: IC50 4T1 Cell.
Format: cell-based
Protocol: [Example 2] Assay for Evaluating Cellular Inhibition of TGF-β Signaling
4T1 (SBE-luc2P) transient pool that have SBE-luc2P (hygro) expression plasmid or HEK293 (SBE reporter) stable cells (BPS bioscience) were seeded at 6×10^3 cells/well or 2.5×10^4 cells/well in 96-well plate, respectively. 4T1 (SBE-luc2P) transient pool were pre-treated with novel compound synthesized in Example 1 above in 0.2% FBS at approximately 60% confluence at 37° C. in 5% CO2. Also, HEK293 (SBE reporter) stable cells were pre-treated with each test compounds of formula in 0.5% FBS at approximately 80% confluence at 37° C. in 5% CO2. After 2 hours, cells were treated with TGF-β1 (2 ng/mL) for 24 h at 37° C. in 5% CO2. Cell lysates were prepared using Luciferase Assay (Promega) according to the manufacturer's instruction, and luminescence was measured by a plate reader, Biotek Synergy H1 (Vermont, USA).

Question: With Cc1nc(-c2ccccc2)c(Oc2ccnc(Nc3ccc(Cl)nc3)c2)s1 [A-84, N-(6-Chloropyridin-3-yl)-4-((2-methyl-4-phenylthiazol-5-yl)oxy)pyridin-2-amine] as the molecule, how does the IC50 read?
Answer: Its IC50 is over 100 nM.

Question: Cc1nc(-c2ccccc2)c(Oc2ccnc(Nc3ccnc(F)c3)c2)s1 [A-87, N-(2-Fluoropyridin-4-yl)-4-((2-methyl-4-phenylthiazol-5-yl)oxy)pyridin-2-amine] was tested. Which IC50 did it give?
Answer: The IC50 was over 100 nM.

Question: Which IC50 does the source give for COc1cc(Nc2cc(Oc3sc(C)nc3-c3ccccc3)ccn2)ccn1 [A-88, N-(2-Methoxypyridin-4-yl)-4-((2-methyl-4-phenylthiazol-5-yl)oxy)pyridin-2-amine] here?
Answer: Its IC50 is under 100 nM.

Question: Which IC50 does the source give for Cc1nc(-c2ccccc2)c(Oc2ccnc(Nc3ccnc(Cl)c3)c2)s1 [A-89, N-(2-Chloropyridin-4-yl)-4-((2-methyl-4-phenylthiazol-5-yl)oxy)pyridin-2-amine] here?
Answer: Its IC50 is under 100 nM.

Question: With Cc1nc(-c2ccccc2)c(Oc2ccnc(Nc3ccc(C(N)=O)cn3)c2)s1 [A-90, 6-((4-((2-Methyl-4-phenylthiazol-5-yl)oxy)pyridin-2-yl)amino)nicotinamide] as the molecule, how does the IC50 read?
Answer: Its IC50 is under 100 nM.

Question: Which IC50 does the source give for Cc1nc(-c2ccccc2)c(Oc2ccnc(NCc3ccccc3)c2)s1 [A-94, N-Benzyl-4-((2-methyl-4-phenylthiazol-5-yl)oxy)pyridin-2-amine] here?
Answer: Its IC50 is over 100 nM.

Question: How did the IC50 turn out when Cc1nc(-c2ccccc2)c(Oc2ccnc(NCc3ccc(F)cc3)c2)s1 [A-95, N-(4-Fluorobenzyl)-4-((2-methyl-4-phenylthiazol-5-yl)oxy)pyridin-2-amine] was run?
Answer: Its IC50 is over 100 nM.

Question: For Cc1nc(-c2ccccc2)c(Oc2ccnc(NCc3cccc(F)c3)c2)s1 [A-96, N-(3-Fluorobenzyl)-4-((2-methyl-4-phenylthiazol-5-yl)oxy)pyridin-2-amine], which IC50 is on record?
Answer: Its IC50 is over 100 nM.

Question: Which IC50 does the source give for Cc1nc(-c2ccccc2)c(Oc2ccnc(Nc3cnn(S(C)(=O)=O)c3)c2)s1 [A-97, 4-((2-Methyl-4-phenylthiazol-5-yl)oxy)-N-(1-(methylsulfonyl)-1H-pyrazol-4-yl)pyridin-2-amine] here?
Answer: The IC50 was over 100 nM.

Question: For Cc1nc(-c2ccccc2)c(Oc2ccnc(Nc3cnn(S(=O)(=O)C4CC4)c3)c2)s1 [A-98, N-(1-(Cyclopropylsulfonyl)-1H-pyrazol-4-yl)-4-((2-methyl-4-phenylthiazol-5-yl)oxy)pyridin-2-amine], which IC50 is on record?
Answer: Its IC50 is over 100 nM.

Question: Cc1nc(-c2ccccc2)c(Oc2ccnc(Nc3cnn(C)c3)c2)s1 [A-99, N-(1-Methyl-1H-pyrazol-4-yl)-4-((2-methyl-4-phenylthiazol-5-yl)oxy)pyridin-2-amine] was tested. Which IC50 did it give?
Answer: Its IC50 is under 100 nM.

Question: How did the IC50 turn out when Cc1nc(-c2ccccc2)c(Oc2ccnc(Nc3cn[nH]c3)c2)s1 [A-100, 4-((2-Methyl-4-phenylthiazol-5-yl)oxy)-N-(1H-pyrazol-4-yl)pyridin-2-amine] was run?
Answer: The IC50 was under 100 nM.

Question: How did the IC50 turn out when Cc1nc(-c2ccccc2)c(Oc2ccnc(Nc3cccc(C(N)=O)n3)c2)s1 [A-101, 6-((4-((2-Methyl-4-phenylthiazol-5-yl)oxy)pyridin-2-yl)amino)picolinamide] was run?
Answer: The IC50 was under 100 nM.

Question: With Cc1nc(-c2ccccc2)c(Oc2ccnc(Nc3ccnc(C(N)=O)c3)c2)s1 [A-102, 4-((4-((2-Methyl-4-phenylthiazol-5-yl)oxy)pyridin-2-yl)amino)picolinamide] as the molecule, how does the IC50 read?
Answer: Its IC50 is over 100 nM.

Question: COc1ccc(Nc2cc(Oc3sc(C)nc3-c3ccccc3)ccn2)cc1 [A-103, N-(4-Methoxyphenyl)-4-((2-methyl-4-phenylthiazol-5-yl)oxy)pyridin-2-amine] was tested. Which IC50 did it give?
Answer: The IC50 was over 100 nM.

Question: COc1cc(Nc2cc(Oc3sc(C)nc3-c3ccccc3)ccn2)ccc1N1CCN(C)CC1 [A-106, N-(3-Methoxy-4-(4-methylpiperazin-1-yl)phenyl)-4-((2-methyl-4-phenylthiazol-5-yl)oxy)pyridin-2-amine] was tested. Which IC50 did it give?
Answer: Its IC50 is under 100 nM.

Question: For COCCN1CCN(c2ccc(Nc3cc(Oc4sc(C)nc4-c4ccccc4)ccn3)cc2)CC1 [A-108, N-(4-(4-(2-Methoxyethyl)piperazin-1-yl)phenyl)-4-((2-methyl-4-phenylthiazol-5-yl)oxy)pyridin-2-amine], which IC50 is on record?
Answer: Its IC50 is under 100 nM.

Question: How did the IC50 turn out when O=S(=O)(Nc1cccc(Nc2cc(Oc3sc(C4CC4)nc3-c3ccccc3)ccn2)c1)C(F)(F)F [A-123, N-(3-((4-((2-Cyclopropyl-4-phenylthiazol-5-yl)oxy)pyridin-2-yl)amino)phenyl)-1,1,1-trifluoromethanesulfonamide] was run?
Answer: The IC50 was under 100 nM.

Question: How did the IC50 turn out when COC(=O)c1ccc(Nc2cc(Oc3sc(C4CC4)nc3-c3ccccc3)ccn2)nc1 [A-130, Methyl 6-((4-((2-cyclopropyl-4-phenylthiazol-5-yl)oxy)pyridin-2-yl)amino)nicotinate] was run?
Answer: The IC50 was under 100 nM.

Question: How did the IC50 turn out when COC(=O)c1cccc(Nc2cc(Oc3sc(C4CC4)nc3-c3ccccc3)ccn2)n1 [A-131, Methyl 6-((4-((2-cyclopropyl-4-phenylthiazol-5-yl)oxy)pyridin-2-yl)amino)picolinate] was run?
Answer: Its IC50 is over 100 nM.

Question: How did the IC50 turn out when COC(=O)c1cccc(Nc2cc(Oc3sc(N(C)C)nc3-c3ccccc3)ccn2)n1 [A-162, Methyl 6-((4-((2-(dimethylamino)-4-phenylthiazol-5-yl)oxy)pyridin-2-yl)amino)picolinate] was run?
Answer: Its IC50 is under 100 nM.

Question: Which IC50 does the source give for COC(=O)c1cccc(Nc2cc(Oc3sc(C(C)C)nc3-c3ccccc3)ccn2)n1 [A-216, Methyl 6-((4-((2-Isopropyl-4-phenylthiazol-5-yl)oxy)pyridin-2-yl)amino)picolinate] here?
Answer: Its IC50 is over 100 nM.

Question: Which IC50 does the source give for Cc1nc(-c2ccccc2)c(Oc2cc(Nc3cccc(S(N)(=O)=O)c3)ncn2)s1 [A-237, 3-((6-((2-Methyl-4-phenylthiazol-5-yl)oxy)pyrimidin-4-yl)amino)benzenesulfonamide] here?
Answer: Its IC50 is over 100 nM.

Question: With Nc1nc(-c2ccccc2)c(Oc2cc(Nc3cccc(S(N)(=O)=O)c3)ncn2)s1 [A-239, 3-((6-((2-Amino-4-phenylthiazol-5-yl)oxy)pyrimidin-4-yl)amino)benzenesulfonamide] as the molecule, how does the IC50 read?
Answer: Its IC50 is under 100 nM.

Question: Cc1cccc(-c2nc(C)sc2Oc2ccnc(Nc3cccc(Cc4nnn[nH]4)c3)c2)n1 [A-305, N-(3-((1H-Tetrazol-5-yl)methyl)phenyl)-4-((2-methyl-4-(6-methylpyridin-2-yl)thiazol-5-yl)oxy)pyridin-2-amine] was tested. Which IC50 did it give?
Answer: Its IC50 is over 100 nM.

Question: Cc1cccc(-c2nc(C)sc2Oc2ccnc(Nc3cccc(CCC#N)c3)c2)n1 [A-306, 3-(3-((4-((2-Methyl-4-(6-methylpyridin-2-yl)thiazol-5-yl)oxy)pyridin-2-yl)amino)phenyl)propanenitrile] was tested. Which IC50 did it give?
Answer: Its IC50 is under 100 nM.

Question: With Cc1cccc(-c2nc(C)sc2Oc2ccnc(Nc3cccc(CCc4nn[nH]n4)c3)c2)n1 [A-307, N-(3-(2-(2H-tetrazol-5-yl)ethyl)phenyl)-4-((2-methyl-4-(6-methylpyridin-2-yl)thiazol-5-yl)oxy)pyridin-2-amine] as the molecule, how does the IC50 read?
Answer: The IC50 was under 100 nM.

Question: COC(=O)C(C)(C)c1cccc(Nc2cc(Oc3sc(C)nc3-c3cccc(C)n3)ccn2)c1 [A-308, Methyl 2-methyl-2-(3-((4-((2-methyl-4-(6-methylpyridin-2-yl)thiazol-5-yl)oxy)pyridin-2-yl)amino)phenyl)propanoate] was tested. Which IC50 did it give?
Answer: Its IC50 is under 100 nM.

Question: For CCc1nc(-c2ccccc2)c(Oc2ccnc(Nc3cccc(NS(=O)(=O)C(F)(F)F)c3)c2)s1 [A-311, N-(3-((4-((2-Ethyl-4-phenylthiazol-5-yl)oxy)pyridin-2-yl)amino)phenyl)-1,1,1-trifluoromethanesulfonamide], which IC50 is on record?
Answer: The IC50 was under 100 nM.
